Laboratory results as given in patent US9642835B2, “Modulators of GTPase and use in relevant treatment” (STC.UNM, priority 2010, dated 2017).
pEC50: −log10 of the molar value.

Experiments:
Cdc42 ACT (Cdc42Q61L) = Cdc42 ACT (Cdc42Q61L) (Homo sapiens, UniProt P60953, Q61L); assay: Bead-based flow cytometry dose response, BODIPY-FL-GTP binding; conditions: Table 6, R3 analogs; read-out: Cdc42 ACT EC50
Description: (§1) Bead sets for multiplex assays were custom synthesized by Duke Scientific Corp (Fremont, Calif.), but may now be ordered from Thermo/Fisher. […] Negative controls, contained the bead mixture with fluorescent GTP, 0.5 mM unlabeled GTP as a competitor, and 1% DMSO. […] The resulting time-dependent data (one file per plate) were analyzed using IDLQuery software to determine the compound activity in each well. Gating based on forward scatter (FS) and side scatter (SS) parameters was used to identify singlet bead populations. Gating based on FL8 emission distinguishes the beads coated with different proteins, and the median fluorescence per bead population was calculated. […] Baselines were set to 100% based on measurements from the 1% DMSO containing positive controls as further described in PubChem. {PubChem #72}
(§2) Briefly, compounds were serially diluted 1:3 a total of eight times from a starting concentration of 10 mM giving a 9-point dilution series in DMSO. The final concentrations of inhibitors in the assay ranged from 10 nM to 100 μM. Dose-response analyses were examined in the presence of NP-HPS buffer containing: a) 1 mM EDTA; or b) 1 mM MgCl2. […] For assays with EDTA we used one multiplex (Rab7 wt, Rab2 wt, H-Ras wt, H-RasG12V, Cdc42 wt, and Cdc42Q61L) and 3 single-plexes (for Rac1 wt, Rac1 Q61L and GST-GFP).
(§3) GTPase activators were identified on the basis of an increase in fluorescent GTP-binding.
(§4) In experiments including magnesium, six GST-GTPases were assayed simultaneously in a single multiplex (Rac1 wt, Rac1Q61L, RhoA wt, RhoAL63, Cdc42 wt and Cdc42Q61L) and 1 nM BODIPY-FL-GTP binding was measured in the presence or absence of the serial drug dilution series. Each dose response series was run in duplicate.

Cdc42 WT = target: T1, Cdc42 WT (Homo sapiens, UniProt P60953); assay: as above; conditions: Table 6, R3 analogs; for pEC50: read-out: Cdc42 WT EC50; for Emax: read-out: Cdc42 WT Efficacy
T1 construct: purchased Cytoskeleton
Description: as §1, §2, §3, §4

[1] = target: T2, Cdc42 GTPase in Swiss 3T3 cells (Mus musculus, UniProt P60766); assay: GLISA; assay type: cell-based; conditions: approximately 10 μM
T2 construct: endogenous in cells; host or cells: Swiss 3T3 cells
Description: Swiss 3T3 cells were continuously passaged at subconfluence and used to monitor the capacity of compounds to block stimulus-mediated activation of Cdc42, Rac1 or RhoA in vivo. Commercial GLISA kits customized to capture activated Cdc42, Rac1 or Rho from cell lysates were used per manufacturer's instructions (Cytoskeleton, Inc.). Cells were serum starved by sequentially removing serum over a three day period and treated with DMSO or 10 μM compound in DMSO for 20-30 min. Subsequently samples were treated with EGF (10 ng/ml for Rac1 and 100 ng/ml for Cdc42) for 2 min to activate Rac1 and Cdc42 or 5 U/ml calpeptin for 10 min to activate RhoA. DMSO treated cells were left unstimulated to determine baseline GTPase activation or stimulated without drug treatment to determine maximal GTPase activation. Cell lysates were snap frozen, active Cdc42 and Rac1 were quantified based on a PAK binding assay, active RhoA was quantified based on Rho GTP-binding protein interaction. All assays were performed in 96-well microtiter plates, Purified GTP-bound Cdc42, Rac1, or RhoA served as a standards to calculate ng active GTPase in the lysates.

Cdc42 = Cdc42 (Homo sapiens, UniProt P60953); assay: Fluorescent-GTP binding to Cdc42 (p38 inhibitor control)
Cdc42, sequence (P60953 whole entry, species assumed): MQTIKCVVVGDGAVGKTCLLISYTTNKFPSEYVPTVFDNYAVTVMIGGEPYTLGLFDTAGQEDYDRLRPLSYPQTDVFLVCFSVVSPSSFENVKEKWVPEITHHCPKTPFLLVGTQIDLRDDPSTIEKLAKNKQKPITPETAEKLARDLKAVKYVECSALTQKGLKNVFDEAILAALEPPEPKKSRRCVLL

T1 sequence (P60953 whole entry): as the sequence (P60953 whole entry, species assumed) above
Cdc42 ACT (Cdc42Q61L), sequence (P60953 whole entry Q61L): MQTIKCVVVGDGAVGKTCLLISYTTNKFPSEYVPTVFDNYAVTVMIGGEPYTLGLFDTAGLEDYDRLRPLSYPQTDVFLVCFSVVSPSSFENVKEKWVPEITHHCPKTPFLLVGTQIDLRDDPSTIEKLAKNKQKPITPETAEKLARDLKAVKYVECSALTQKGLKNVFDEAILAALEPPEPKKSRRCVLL
T2 sequence (P60766 whole entry): as the sequence (P60953 whole entry, species assumed) above

| pEC50 (Cdc42 ACT (Cdc42Q61L)) | pEC50 (Cdc42 WT) | Emax (Cdc42 WT) | Inhibition of Cdc42 GTPase in GLISA [1] | SMILES | Fluorescent-GTP binding to Cdc42 (Cdc42) |
| --- | --- | --- | --- | --- | --- |
| 5.28 | 5.30 | 55% | significant response | Cc1cccc(C2CC(c3ccccc3)=NN2c2ccc(S(N)(=O)=O)cc2)c1 (stereo not drawn) [CID 44143700, 4-[3-(3-methylphenyl)-5-phenyl-3,4-dihydropyrazol-2-yl]benzene sulfonamide] |  |
|  |  |  |  | Oc1ccc(-c2nc(-c3ccncc3)c(-c3ccc(F)cc3)[nH]2)cc1 [SB 202190] | did not inhibit |
| 5.30 | 5.30 | 66% | significant response | Cc1ccc(C2CC(c3ccccc3)=NN2c2ccc(S(N)(=O)=O)cc2)cc1 (stereo not drawn) [CID 13927310, 4-[3-(4-methylphenyl)-5-phenyl-3,4-dihydropyrazol-2-yl]benzene sulfonamide] |  |
